The values below come from PMC5015447 (Biochemistry, 2016).

“And” between values parts separate entries of the source, which are not always exact repeats. Equal values may be shown once. Read-outs that look alike come from different tables or passages of the source.

Test [1] addresses E. coli cofactor-dependent phosphoglycerate mutase (dPGM) (Escherichia coli, UniProt P62707). The experiment in a line: biochemical. The class given is binding.
The test system of test [2] is cofactor-dependent phosphoglycerate mutase (dPGM). The settings on record: cited from earlier work.
In test [3] the target is T1, dPGM K222A (Escherichia coli, UniProt P62707, K223A). The experiment in a line: ATP binding by isothermal titration calorimetry, K222A. The arrangement: species or system E. coli. (ITC needs no label: the signal is the heat of the interaction.)
Test [4] concerns the target T2, dPGM R116A (Escherichia coli, UniProt P62707, R117A). The test can be described thus: Equilibrium unfolding of dPGM variant R116A with 1.0 mM ATP. The test is classed as binding, E. coli.
Test [5] has as its target T3, dPGM K99A (Escherichia coli, UniProt P62707, K100A). The experiment in a line: ATP binding by isothermal titration calorimetry, K99A. The arrangement: species or system E. coli.
The target of test [6] is T4, dPGM R9A (Escherichia coli, UniProt P62707, R10A). The test can be described thus: Equilibrium unfolding of dPGM variant R9A with 1.0 mM ATP. The test is classed as binding, E. coli.
Test [7] has as its target T2, dPGM R116A. The experiment in a line: ATP binding by isothermal titration calorimetry, R116A. Details: species or system E. coli.
Test [8] deals with T5, dPGM R115A (Escherichia coli, UniProt P62707, R116A). The experiment in a line: Equilibrium unfolding of dPGM variant R115A with 1.0 mM ATP. The class given is binding, E. coli.
The target of test [9] is T1, dPGM K222A. The test can be described thus: Equilibrium unfolding of dPGM variant K222A. The test is classed as binding, E. coli.
A further test has as its target Wild-type dPGM (Escherichia coli, UniProt P62707). The experiment in a line: ATP binding by isothermal titration calorimetry, wild-type dPGM. The arrangement: species or system E. coli.
Test [10] deals with T4, dPGM R9A. The experiment in a line: ATP binding by isothermal titration calorimetry, R9A. Details: species or system E. coli.
Test [11] has as its target T5, dPGM R115A. The test can be described thus: ATP binding by isothermal titration calorimetry, R115A. The arrangement: species or system E. coli.
Test [12] deals with T3, dPGM K99A. The experiment in a line: Equilibrium unfolding of dPGM variant K99A with 1.0 mM ATP. The class given is binding, E. coli.
A further test has as its system S. cerevisiae dPGM. Particulars: cited from earlier work.
[13] abbreviates: ligand 1.0 mM, one global fit of all nucleotide data sets.
Where [14] appears, read: 50 mM phosphate, global fit with no-ligand data.
The mark [15] stands for this setting: 50 mM phosphate, global fit with no-ligand data (shared m-value).

T4 sequence (P62707 whole entry R10A): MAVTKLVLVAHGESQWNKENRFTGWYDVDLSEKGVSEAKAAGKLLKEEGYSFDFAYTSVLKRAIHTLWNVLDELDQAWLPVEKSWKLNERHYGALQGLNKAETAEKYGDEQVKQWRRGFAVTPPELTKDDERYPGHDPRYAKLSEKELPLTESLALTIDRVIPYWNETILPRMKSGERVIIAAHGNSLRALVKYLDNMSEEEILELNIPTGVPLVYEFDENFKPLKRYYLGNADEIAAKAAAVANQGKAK
T1 sequence (P62707 whole entry K223A): as the sequence (P62707 whole entry R10A) above, with A10R, K223A counted along it
Chain of E. coli cofactor-dependent phosphoglycerate mutase (dPGM) (P62707 whole entry): as the sequence (P62707 whole entry R10A) above, with A10R counted along it
T2 sequence (P62707 whole entry R117A): as the sequence (P62707 whole entry R10A) above, with A10R, R117A counted along it
T3 sequence (P62707 whole entry K100A): as the sequence (P62707 whole entry R10A) above, with A10R, K100A counted along it
T5 sequence (P62707 whole entry R116A): as the sequence (P62707 whole entry R10A) above, with A10R, R116A counted along it
Chain of Wild-type dPGM (P62707 whole entry): as the sequence (P62707 whole entry R10A) above, with A10R counted along it

As to `Nc1ncnc2c1ncn2[C@@H]1O[C@H](CO)[C@@H](O)[C@H]1O` [Adenosine, adenosine], in test [1] (ligand 1.0 mM), the “effect on equilibrium unfolding (first unfolding transition)” value (“effect on equilibrium unfolding” for short) was “negligible” and the “ΔΔGI-N° = ΔGI-N°(ligand) – ΔGI-N°(no ligand)” value is listed as 0.09 (± 0.07) kcal/mol. Besides, in test [1] (setting [13]), the “ΔGI-N°” value is 11.7 (± 0.1) kcal/mol and the ΔGU-I is recorded as 5.6 (± 0.2) kcal/mol.
By Kd is commonly meant a measure of binding affinity in units of concentration. In [1], `Nc1nc2c(ncn2[C@@H]2O[C@H](COP(=O)(O)OP(=O)(O)OP(=O)(O)O)[C@@H](O)[C@H]2O)c(=O)[nH]1` [GTP, guanosine triphosphate] came in with a Kd of 0.4 ± 0.5 µM. In test [1] (ligand 1.0 mM), the “effect on equilibrium unfolding” value is “significantly shift the first unfolding transition to higher urea concentrations” and the “ΔΔGI-N° = ΔGI-N°(ligand) – ΔGI-N°(no ligand)” value was 9.3 (± 0.8) kcal/mol. Moreover, in test [1] (setting [13]), the “ΔGI-N°” value is listed as 20.9 (± 0.8) kcal/mol and the ΔGU-I is recorded as 4.3 (± 0.6) kcal/mol.
With phosphate, in test [1] (50 mM phosphate), the “ΔΔGI-N°” value is 5.9 (± 0.1) kcal/mol. In test [1] (setting [14]), the “ΔGI-N°” value is recorded as 17.3 (± 0.1) kcal/mol and the ΔGU-I is recorded as 5.6 (± 0.3) kcal/mol. Besides, in test [1] (setting [15]), the mI-N is given as 2.36 (± 0.03) kcal mol^−1M^−1 and the mU-I was 1.82 (± 0.08) kcal mol^−1M^−1. Further, the Kd in test [1] (calculated with Eq. 6, 50 mM phosphate) was 350 ± 60 µM.
As for `Nc1ncnc2c1ncn2[C@@H]1O[C@H](CO[P@](=O)(O)O[P@](=O)(O)O[P@@](=O)(O)S)[C@@H](O)[C@H]1O` [ATPγS], the “protein remaining intact after pulse proteolysis” value in test [2] (E. coli lysate, 2.0 M urea, 1.0 mM ATPγS) was “a significant population of the protein remained intact”.
On to `Nc1ncnc2c1ncn2[C@@H]1O[C@H](COP(=O)(O)O)[C@@H](O)[C@H]1O` [AMP, adenosine monophosphate], for which the Kd in test [1] (calculated with Eq. 6 from stability increase, ligand 1.0 mM) was 240 ± 40 µM. In [1] (ligand 1.0 mM), the “effect on equilibrium unfolding” value is given as “significantly shift the first unfolding transition to higher urea concentrations” and the “ΔΔGI-N° = ΔGI-N°(ligand) – ΔGI-N°(no ligand)” value was 1.96 (± 0.09) kcal/mol. In addition, in test [1] (setting [13]), the “ΔGI-N°” value is 13.6 (± 0.1) kcal/mol and the ΔGU-I is 5.5 (± 0.2) kcal/mol.
For the compound `O=P(O)(O)OP(=O)(O)O` [Pyrophosphate], in [1], the Kd is 1.2 ± 0.2 µM, the mI-N is 2.47 (± 0.04) kcal mol^−1M^−1, the mU-I is recorded as 1.62 (± 0.09) kcal mol^−1M^−1 and the “ΔGI-N°” value is recorded as 16.8 (± 0.1) kcal/mol. For the same compound, in test [1], the ΔGU-I was 5.2 (± 0.3) kcal/mol and the “ΔΔGI-N°” value is recorded as 5.3 (± 0.1) kcal/mol.
`Nc1ncnc2c1ncn2[C@@H]1O[C@H](COP(=O)(O)OP(=O)(O)O)[C@@H](O)[C@H]1O` [ADP, adenosine diphosphate] came in with a Kd in [1] of 18 ± 3 µM. Besides, in [1] (ligand 1.0 mM), the “effect on equilibrium unfolding” value is listed as “significantly shift the first unfolding transition to higher urea concentrations” and the “ΔΔGI-N° = ΔGI-N°(ligand) – ΔGI-N°(no ligand)” value is reported as 4.8 (± 0.1) kcal/mol. Further, in test [1] (setting [13]), the “ΔGI-N°” value was 16.4 (± 0.1) kcal/mol and the ΔGU-I is listed as 5.2 (± 0.2) kcal/mol.
In the case of `Nc1ncnc2c1ncn2[C@@H]1O[C@H](COP(=O)(O)OP(=O)(O)OP(=O)(O)O)[C@@H](O)[C@H]1O` [ATP, adenosine triphosphate], the Kd was found to be 0.4 ± 0.1 µM at dPGM K222A [3]; 7 ± 2 µM at dPGM K99A [5]; 1.5 ± 0.5 µM in test [1]; 1.5 ± 0.3 µM on dPGM R116A [7]; 0.32 ± 0.07 µM at Wild-type dPGM; 5.5 ± 0.5 µM at dPGM R9A [10]. The same compound came in with a Kd at dPGM R115A [11] of 7 ± 2 µM. Also, the “ΔΔGbind° = ΔGbind°(varient) – ΔGbind°(WT)” value is recorded as “–0.1 ± 0.2 kcal/mol” at dPGM K222A [3] (K222A); “–1.8 ± 0.2 kcal/mol” on dPGM K99A [5] (K99A); “–0.9 ± 0.2 kcal/mol” on dPGM R116A [7] (R116A); “–1.7 ± 0.1 kcal/mol” at dPGM R9A [10] (R9A); “–1.8 ± 0.2 kcal/mol” at dPGM R115A [11] (R115A). In addition, the “ΔGbind°” value on dPGM K222A [3] (K222A, calculated with Eq. 6 using [ATP] = 1.0 mM) is 4.6 ± 0.1 kcal/mol; at dPGM K99A [5] (K99A, calculated with Eq. 6 using [ATP] = 1.0 mM), 2.9 ± 0.2 kcal/mol; on dPGM R116A [7] (R116A, calculated with Eq. 6 using [ATP] = 1.0 mM) it was 3.8 ± 0.1 kcal/mol; on Wild-type dPGM (WT, calculated with Eq. 6 using [ATP] = 1.0 mM), 4.7 ± 0.1 kcal/mol; at dPGM R9A [10] (R9A, calculated with Eq. 6 using [ATP] = 1.0 mM), 3.1 ± 0.05 kcal/mol; on dPGM R115A [11] (R115A, calculated with Eq. 6 using [ATP] = 1.0 mM) it was 2.9 ± 0.2 kcal/mol. Moreover, the “ΔGATP° = ΔGI-N°(1 mM ATP) - ΔGI-N°(No ATP)” value on dPGM R116A [4] is listed as 5.4 ± 0.2 kcal/mol; on dPGM R9A [6], 4.2 ± 0.2 kcal/mol; on dPGM R115A [8], 4.8 ± 0.4 kcal/mol; at dPGM K222A [9], 9 ± 2 kcal/mol. The “ΔGI-N°” value is given as 18.1 ± 0.2 kcal/mol at dPGM R116A [4]; 19.3 (± 0.2) kcal/mol in [1] (setting [13]); 16.6 ± 0.2 kcal/mol on dPGM R9A [6]; 19.4 ± 0.3 kcal/mol at dPGM R115A [8]; 21 ± 2 kcal/mol on dPGM K222A [9] (1.0 mM ATP); 18.5 ± 0.2 kcal/mol on dPGM K99A [12]. For the same compound, the “ΔGU-I°” value at dPGM R116A [4] was 5.8 ± 0.4 kcal/mol; at dPGM R9A [6], 6.3 ± 0.5 kcal/mol; at dPGM R115A [8], 5 ± 1 kcal/mol; on dPGM K222A [9] (1.0 mM ATP) it was 4.4 ± 0.9 kcal/mol; on dPGM K99A [12], 6 ± 1 kcal/mol. For the same compound, the “ΔΔGATP° = ΔGATP°(variant) – ΔGATP°(WT)” value is “–0.8 ± 0.1 kcal/mol” on dPGM R116A [4]; “–1.4 ± 0.1 kcal/mol” on dPGM R9A [6]; “–1.1 ± 0.2 kcal/mol” on dPGM R115A [8]; 1.2 ± 1 kcal/mol at dPGM K222A [9] (1.0 mM ATP); “–1.5 ± 0.2 kcal/mol” at dPGM K99A [12]. The “effective stability (ΔGeff)” value in test [1] (1.0 µM dPGM, 1.0 mM ATP, native conditions) worked out at 5.4 kcal/mol. Also, the “Cm of the single apparent unfolding transition” value in test [1] (1.0 mM ATP) is given as “about 3.6 M urea”. Further, the “increase in stability per monomeric unit” value in test [1] (1.0 mM ATP) is listed as 3.5 kcal/mol. Further, in [1] (1.0 mM ATP, 2.5 M urea, per monomer), the “ΔG° of binding of ATP to the native dimer (N2)” value was “–3.5 kcal/mol”. Further, the “increase in ΔGI-N° (ΔGATP°) of wild type” value in test [1] (1.0 mM ATP, Table 1 fit) was 7.0 ± 0.2 kcal/mol and 7.0 kcal/mol. In addition, in test [1] (1.0 mM ATP, around 3.7 M urea), the “maximum fraction of intermediate” value is recorded as 0.12. Moreover, in test [1] (1.0 mM ATP, called insignificant), the “effect on ΔGU-I°” value came to 0.6 kcal/mol. Besides, the “ΔGU-N°” value in test [1] (1.0 mM ATP, fluorescence) turned out to be 30.5 ± 0.8 kcal/mol. In addition, the ΔGI-N in test [1] (1.0 mM ATP, fluorescence, global fit with no-ATP data, 30 µg/mL dPGM, pH 8.0) turned out to be 18.5 ± 0.2 kcal/mol. For the same compound, the “effective free energy change, I to N2•L2” value in [1] (2.5 M urea, 1.0 mM ATP, 1 µM dPGM) is “–2.4 kcal/mol per monomer”. Besides, the “ΔGN-I° for reaction from I to N2•L2” value in test [1] (2.5 M urea, 1.0 mM ATP, from Table 1 and Eq. 2) is listed as “–12.5 kcal/mol”. In addition, the “ΔΔGI-N° = ΔGI-N°(ligand) – ΔGI-N°(no ligand)” value in test [1] (ligand 1.0 mM) is given as 7.7 (± 0.2) kcal/mol. Besides, the ΔGU-I in test [1] (setting [13]) is 5.0 (± 0.3) kcal/mol. Further, in test [2] (1.0 mM ATP), the “stabilization by pulse proteolysis with purified dPGM” value is listed as “stabilization”. In the test on S. cerevisiae dPGM, the “stabilization in energetics-based proteome screen” value is listed as “stabilizes”.
